Assays:
Experiment in all cases: Cell proliferation assay (Alamar Blue)
Assay type in all cases: cell-based
BxPC3 = conditions: Homo sapiens, BXPC-3, 96 h, BxPC3 cells, four days
Protocol: (§1) A representative cell-proliferation assay protocol using Alamar Blue dye (stored at 4°C, use 20ul per well) is described hereafter. 96-well plate setup and compound treatment • a. Split and trypsinize cells. • b. Count cells using hemocytometer. • c. Plate 4,000-5,000 cells per well in 100 µl of medium and seed into a 96-well plate according to the following plate layout. Add cell culture medium only to wells B10 to B12. Wells B1 to B9 have cells but no compound added. [formula] [formula] • d. Add 100 µl of 2X drug dilution to each well in a concentration shown in the plate layout above. At the same time, add 100 µl of media into the control wells (wells B10 to B12). Total volume is 200 µl/well. • e. Incubate four (4) days at 37°C, 5% CO2 in a humidified incubator. • f. Add 20µl Alamar Blue reagent to each well. • g. Incubate for four (4) hours at 37°C, 5% CO2 in a humidified incubator. • h. Record fluorescence at an excitation wavelength of 544nm and emission wavelength of 590nm using a microplate reader.
(§2) In the assays, cells are cultured with a test compound for approximately four days, the dye then is added to the cells and fluorescence of […] dye is detected after approximately four hours. Different types of cells can be utilized in the assays (e.g., HCT-116 human colorectal carcinoma cells, PC-3 human prostatic cancer cells and MiaPaca human pancreatic carcinoma cells). Anti-proliferative effects of representative compounds are provided hereafter.

PanC1 = conditions: Homo sapiens, PANC-1, 96 h, PanC1 cells, four days
Protocol: as §1, §2

MDAMB231 = conditions: Homo sapiens, MDA-MB-231, 96 h, MDAMB231 cells, four days
Protocol: as §1, §2

| SMILES | IC50 (BxPC3) [µM] | IC50 (PanC1) [µM] | IC50 (MDAMB231) [µM] |
| --- | --- | --- | --- |
| O=C(O)c1ccc2c(c1)nc(Nc1ccccc1)c1nc(Nc3ccccc3)ncc12 [drawing 512] | 40.1 | 3.72 | – |
| O=C(O)c1ccc2c(c1)nc(Nc1cccc(Cl)c1)c1nc(O)ncc12 [drawing 493] | 15.8 | > 50 | – |
| O=C(O)c1ccc2c(c1)nc(Nc1cc(F)cc(F)c1)c1nc(NC3CC3)ncc12 [drawing 501] | 14.9 | 16.1 | – |
| O=C(O)c1ccc2c(c1)nc(Nc1cccc(C(F)(F)F)c1)c1ncncc12 [drawing 478] | 4.31 | 35.2 | – |
| Cc1ncc2c(n1)c(Nc1cccc(Cl)c1)nc1cc(C(=O)O)ccc12 [drawing 494] | 8.88 | > 50 | – |
| O=C(O)c1ccc2c(c1)nc(Nc1ccccc1)c1nc(NC3CCNCC3)ncc12 [drawing 466] | 8.36 | > 50 | – |
| O=C(O)c1ccc2c(c1)nc(Nc1ccccc1)c1nc(NCCN3CCOCC3)ncc12 [drawing 468] | 4.67 | 27.4 | – |
| CCN(CC)CCNc1ncc2c(n1)c(Nc1ccccc1)nc1cc(C(=O)O)ccc12 [drawing 467] | 10.7 | > 50 | – |
| CNc1ncc2c(n1)c(Nc1ccc(F)c(Cl)c1)nc1cc(C(=O)O)ccc12 [drawing 486] | 1.46 | > 50 | – |
| Fc1cc(Nc2nc3cc(-c4nnn[nH]4)ccc3c3cnccc23)ccc1Cl [drawing 454] | – | > 50 | – |
| C#Cc1cccc(Nc2nc3cc(C(=O)O)ccc3c3cnc(NCCCN4CCOCC4)nc23)c1 [drawing 474] | 3.6 | 11.2 | – |
| O=C(O)c1ccc2c(c1)nc(Nc1cccc(F)c1)c1nc(NC3CC3)ncc12 [drawing 502] | 9.89 | 2.81 | – |
| COCCNc1ncc2c(n1)c(Nc1ccccc1)nc1cc(C(=O)O)ccc12 [drawing 463] | 3.92 | 32.6 | – |
| CCOC(=O)CCNC(=O)c1ccc2c(c1)nc(Nc1cccc(C(F)(F)F)c1)c1nc(NC3CC3)ncc12 [drawing 514] | 8.76 | 0.44 | – |
| C#Cc1cccc(Nc2nc3cc(C(=O)O)ccc3c3cnc(NCCC)nc23)c1 [drawing 471] | 3 | 8.12 | – |
| COc1cccc(Nc2nc3cc(C(=O)O)ccc3c3cnc(NC4CC4)nc23)c1 [drawing 503] | 8.68 | 3.48 | – |
| O=C(O)c1ccc2c(c1)nc(Nc1ccc(F)c(Cl)c1)c1nc(NCc3ccncc3)ncc12 [drawing 511] | 7.33 | – | – |
| C#Cc1cccc(Nc2nc3cc(C(=O)O)ccc3c3cnc(NC)nc23)c1 [drawing 475] | 1.6 | 13.8 | – |
| C#Cc1cccc(Nc2nc3cc(C(=O)OC)ccc3c3cnc(NOC)nc23)c1 [drawing 495] | 40 | > 50 | – |
| CCCNc1ncc2c(n1)c(Nc1ccccc1)nc1cc(C(=O)O)ccc12 [drawing 462] | 5.83 | 4.28 | – |
| O=C(O)c1ccc2c(c1)nc(Nc1cccc(C(F)(F)F)c1)c1ccncc12 [drawing 500] | 2.6 | 27.2 | – |
| C#Cc1cccc(Nc2nc3cc(C(=O)O)ccc3c3cnc(NC4CC4)nc23)c1 [drawing 470] | 1.05 | 5.79 | – |
| O=C(O)c1ccc2c(c1)nc(Nc1cccc(C(F)(F)F)c1)c1nc(NC3CC3)ncc12 [drawing 484] | 10 | 2.03 | – |

| SMILES | IC50 (BxPC3) [µM] | IC50 (PanC1) [µM] | IC50 (MDAMB231) [µM] |
| --- | --- | --- | --- |
| O=C(NC1CC1)c1ccc2c(c1)nc(Nc1cccc(C(F)(F)F)c1)c1nc(NC3CC3)ncc12 [drawing 508] | 2.73 | 16 | – |
| C#Cc1cccc(Nc2nc3cc(C(=O)O)ccc3c3cnc(NCCOCC)nc23)c1 [drawing 490] | 0.69 | 2.41 | – |
| O=C(O)c1ccc2c(c1)nc(Nc1ccc(F)c(Cl)c1)c1nc(NCc3ccccn3)ncc12 [drawing 505] | 11.1 | > 50 | – |
| CC(C)Nc1ncc2c(n1)c(Nc1cccc(Cl)c1)nc1cc(C(=O)O)ccc12 [drawing 483] | 36.9 | 33.2 | – |
| C#Cc1cccc(Nc2nc3cc(C(=O)O)ccc3c3cnc(NCCCOCC)nc23)c1 [drawing 491] | 0.48 | 1.04 | – |
| O=C(O)c1ccc2c(c1)nc(Nc1ccccc1)c1nc(NCCCN3CCOCC3)ncc12 [drawing 469] | 1.65 | > 50 | – |
| Nc1ncc2c(n1)c(Nc1ccc(F)c(Cl)c1)nc1cc(C(=O)O)ccc12 [drawing 487] | 0.7 | 8.03 | – |
| Fc1cccc(Nc2nc3cc(-c4nnn[nH]4)ccc3c3cnccc23)c1 [drawing 453] | – | > 50 | – |
| O=C(O)c1ccc2c(c1)nc(Nc1cc(F)cc(F)c1)c1nc(NC3CC3)ncc12 [drawing 429] | – | – | 23 |
| Cc1cccc(Nc2nc3cc(C(=O)O)ccc3c3cnccc23)c1 [drawing 499] | 2.23 | 38 | – |
| O=C(O)c1ccc2c(c1)nc(Nc1ccccc1)c1nc(Nc3ccccc3)ncc12 [drawing 440] | – | – | 19.2 |
| CCOc1ncc2c(n1)c(Nc1cccc(C(F)(F)F)c1)nc1cc(C(=O)O)ccc12 [drawing 479] | 49.6 | > 50 | – |
| C#Cc1cccc(Nc2nc3cc(C(=O)O)ccc3c3cnc(NCCCOC(C)C)nc23)c1 [drawing 492] | 0.97 | 3.1 | – |
| Clc1cccc(Nc2nc3cc(-c4nnn[nH]4)ccc3c3cnccc23)c1 [drawing 458] | – | > 50 | – |
| C#Cc1cccc(Nc2nc3cc(C(=O)O)ccc3c3cnc(NCCCOC(C)C)nc23)c1 [drawing 420] | – | – | 7.05 |
| O=C(O)c1ccc2c(c1)nc(Nc1cccc(Cl)c1)c1nc(O)ncc12 [drawing 421] | – | – | > 50 |
| O=C(O)c1ccc2c(c1)nc(Nc1ccc(F)c(Cl)c1)c1nc(NCc3ccncc3)ncc12 [drawing 439] | – | – | 12.1 |
| O=C(O)c1ccc2c(c1)nc(Nc1cccc(F)c1)c1nc(NC3CC3)ncc12 [drawing 430] | – | – | 12.8 |
| Nc1ncc2c(n1)c(Nc1ccc(F)c(Cl)c1)nc1cc(C(=O)O)ccc12 [drawing 415] | – | – | 6.53 |
| CC(C)Nc1ncc2c(n1)c(Nc1cccc(Cl)c1)nc1cc(C(=O)O)ccc12 [drawing 411] | – | – | 20.8 |
| O=C(O)c1ccc2c(c1)nc(Nc1cccc(Cl)c1)c1nc(NC3CC3)ncc12 [drawing 477] | 1.95 | 4.61 | – |
| O=C(O)c1ccc2c(c1)nc(Nc1ccccc1)c1nc(NCCCO)ncc12 [drawing 465] | 9.41 | 34.2 | – |
| O=C(O)c1ccc2c(c1)nc(Nc1ccccc1)c1nc(NCCN3CCOCC3)ncc12 [drawing 396] | – | – | 2.44 |

| SMILES | IC50 (BxPC3) [µM] | IC50 (PanC1) [µM] | IC50 (MDAMB231) [µM] |
| --- | --- | --- | --- |
| COCCNc1ncc2c(n1)c(Nc1ccccc1)nc1cc(C(=O)O)ccc12 [drawing 391] | – | – | 24.4 |
| C#Cc1cccc(Nc2nc3cc(C(=O)O)ccc3c3cnc(NCCCOCC)nc23)c1 [drawing 419] | – | – | 5.22 |
| C#Cc1cccc(Nc2nc3cc(C(=O)O)ccc3c3cnc(NC4CC4)nc23)c1 [drawing 398] | – | – | 4.9 |
| C#Cc1cccc(Nc2nc3cc(C(=O)O)ccc3c3cnc(NC4CCNCC4)nc23)c1 [drawing 401] | – | – | > 50 |
| CN(C)CCNc1ncc2c(n1)c(Nc1ccc(F)c(Cl)c1)nc1cc(C(=O)O)ccc12 [drawing 432] | – | – | > 50 |
| C#Cc1cccc(Nc2nc3cc(C(=O)O)ccc3c3cnc(NC)nc23)c1 [drawing 403] | – | – | 5.21 |
| COc1cccc(Nc2nc3cc(C(=O)O)ccc3c3cnc(NC4CC4)nc23)c1 [drawing 431] | – | – | 20.1 |
| O=C(O)c1ccc2c(c1)nc(Nc1ccccc1)c1nc(NCCO)ncc12 [drawing 392] | – | – | > 50 |
| C#Cc1cccc(Nc2nc3cc(C(=O)O)ccc3c3cnc(NCCOCC)nc23)c1 [drawing 418] | – | – | 31.6 |
| O=C(O)c1ccc2c(c1)nc(Nc1cccc(Cl)c1)c1nc(NC3CC3)ncc12 [drawing 405] | – | – | 3.93 |
| CC(C)OC(=O)Nc1ccc2c(c1)nc(Nc1cccc(C(F)(F)F)c1)c1nc(NC3CC3)ncc12 [drawing 441] | – | – | 4.27 |
| O=C(O)c1ccc2c(c1)nc(Nc1ccc(F)c(Cl)c1)c1nc(NC3CC3)ncc12 [drawing 416] | – | – | 7.12 |
| COC(CNc1ncc2c(n1)c(Nc1ccc(F)c(Cl)c1)nc1cc(C(=O)O)ccc12)OC [drawing 434] | – | – | 25.4 |
| CCN(CC)CCNc1ncc2c(n1)c(Nc1ccccc1)nc1cc(C(=O)O)ccc12 [drawing 395] | – | – | 10.5 |
| CNc1ncc2c(n1)c(Nc1cccc(Cl)c1)nc1cc(C(=O)O)ccc12 [drawing 408] | – | – | 8.28 |
| C#Cc1cccc(Nc2nc3cc(C(=O)O)ccc3c3cnc(NCCOC)nc23)c1 [drawing 400] | – | – | 4.74 |
| C#Cc1cccc(Nc2nc3cc(C(=O)OC)ccc3c3cnc(NOC)nc23)c1 [drawing 423] | – | – | > 50 |
| O=C(NC1CC1)c1ccc2c(c1)nc(Nc1cccc(C(F)(F)F)c1)c1nc(NC3CC3)ncc12 [drawing 436] | – | – | 39.8 |
| O=C(O)c1ccc2c(c1)nc(Nc1ccc(F)c(Cl)c1)c1nc(NCc3ccccn3)ncc12 [drawing 433] | – | – | 33.7 |
| O=C(O)CCNc1ncc2c(n1)c(Nc1cccc(Cl)c1)nc1cc(C(=O)O)ccc12 [drawing 426] | – | – | > 50 |
| CCNc1ncc2c(n1)c(Nc1cccc(Cl)c1)nc1cc(C(=O)O)ccc12 [drawing 413] | – | – | 6.87 |
